Results as given in PubChem BioAssay AID2060609 (Molecular Pharmacology Branch, DTP, NCI, 2025).

Tested on: 855422-203-R-J1-PDC complex spheroids, viability
Assay: Anticancer human tumor 855422-203-R-J1-PDC patient-derived bladder carcinoma cell line growth inhibition [CLK]
Conditions: for IC50: curve of first compound; for viability, T/C: stronger effect = lower value
Procedure, shortened: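 Multi-cell-type spheroids combined patient-derived tumor cells with HUVEC endothelial cells and human mesenchymal stem cells. Paired agents were dosed in half-log steps down from about clinical Cmax, or from 10 microM where Cmax was unknown.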

[1] = second compound 0.0316 µM, first compound 0.00316 µM
[2] = second compound 0.0316 µM, first compound 0.01 µM
[3] = second compound 0.0316 µM, first compound 0.0316 µM
[4] = second compound 0.0316 µM, first compound 0.1 µM
[5] = second compound 0.0316 µM, first compound 0.316 µM
[6] = second compound 0.0316 µM, first compound 1 µM
[7] = second compound 0.1 µM, first compound 0.00316 µM
[8] = second compound 0.1 µM, first compound 0.01 µM
[9] = second compound 0.1 µM, first compound 0.0316 µM
[10] = second compound 0.1 µM, first compound 0.1 µM
[11] = second compound 0.1 µM, first compound 0.316 µM
[12] = second compound 0.1 µM, first compound 1 µM
[13] = second compound 0.316 µM, first compound 0.00316 µM
[14] = second compound 0.316 µM, first compound 0.01 µM
[15] = second compound 0.316 µM, first compound 0.0316 µM
[16] = second compound 0.316 µM, first compound 0.1 µM
[17] = second compound 0.316 µM, first compound 0.316 µM
[18] = second compound 0.316 µM, first compound 1 µM
[19] = second compound 1 µM, first compound 0.00316 µM
[20] = second compound 1 µM, first compound 0.01 µM
[21] = second compound 1 µM, first compound 0.0316 µM
[22] = second compound 1 µM, first compound 0.1 µM
[23] = second compound 1 µM, first compound 0.316 µM
[24] = second compound 1 µM, first compound 1 µM
[25] = second compound 3.16 µM, first compound 0.00316 µM
[26] = second compound 3.16 µM, first compound 0.01 µM
[27] = second compound 3.16 µM, first compound 0.0316 µM
[28] = second compound 3.16 µM, first compound 0.1 µM
[29] = second compound 3.16 µM, first compound 0.316 µM
[30] = second compound 3.16 µM, first compound 1 µM
[31] = second compound 10 µM, first compound 0.00316 µM
[32] = second compound 10 µM, first compound 0.01 µM
[33] = second compound 10 µM, first compound 0.0316 µM
[34] = second compound 10 µM, first compound 0.1 µM
[35] = second compound 10 µM, first compound 0.316 µM
[36] = second compound 10 µM, first compound 1 µM
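Further: spheroids exposed to drugs for seven days before readout.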
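Wherever viability, T/C is given: 100% = DMSO vehicle control wells.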

With CCN1CCN(Cc2ccc(Nc3ncc(F)c(-c4cc(F)c5nc(C)n(C(C)C)c5c4)n3)nc2)CC1 + CN1CCN(c2cc(C(=O)Nc3cc4cc(-c5cnn(C)c5)ccc4cn3)ccn2)CC1 the IC50 (second compound 0.0316 µM) was 262 nM, the IC50 (second compound 0.1 µM) was 158 nM and the IC50 (second compound 0.316 µM) was under 3.16 nM. It also gave an IC50 (second compound 1 µM) of under 3.16 nM, an IC50 (second compound 3.16 µM) of under 3.16 nM and an IC50 (second compound 10 µM) of under 3.16 nM. For the same compound, the viability, T/C [1] was 82.8%, the viability, T/C [2] was 97.1% and the viability, T/C [3] was 87.7%. It also gave a viability, T/C [4] of 56.2%, a viability, T/C [5] of 54.6% and a viability, T/C [6] of 42.9%. The viability, T/C [7] was 66.3%, the viability, T/C [8] was 72.4% and the viability, T/C [9] was 76.2%. For the same compound, the viability, T/C [10] was 59.9%, the viability, T/C [11] was 34.8% and the viability, T/C [12] was 30.4%. For the same compound, the viability, T/C [13] was 7.42%, the viability, T/C [14] was 10.2% and the viability, T/C [15] was 14.1%. It also gave a viability, T/C [16] of 13.1%, a viability, T/C [17] of 18% and a viability, T/C [18] of 14.3%. It also gave a viability, T/C [19] of 0.35%, a viability, T/C [20] of 0.82% and a viability, T/C [21] of 1.18%. It also gave a viability, T/C [22] of 0.5%, a viability, T/C [23] of 0.97% and a viability, T/C [24] of 1.71%. The viability, T/C [25] was 0.55%, the viability, T/C [26] was 1.57% and the viability, T/C [27] was 0.95%. It also gave a viability, T/C [28] of 0.83%, a viability, T/C [29] of 2.86% and a viability, T/C [30] of 2.68%. The viability, T/C [31] was 0.5%, the viability, T/C [32] was 0.53% and the viability, T/C [33] was 0.3%. The viability, T/C [34] was 0.46%, the viability, T/C [35] was 0.64% and the viability, T/C [36] was 0.65%.

For COc1c(OCCCN2CCOCC2)ccc2c3n(c(=NC(=O)c4cnc(N)nc4)nc12)CCN3 + CN1CCN(c2cc(C(=O)Nc3cc4cc(-c5cnn(C)c5)ccc4cn3)ccn2)CC1, the IC50 (second compound 0.0316 µM) was 16.8 nM, the IC50 (second compound 0.1 µM) was 16.1 nM and the IC50 (second compound 0.316 µM) was under 3.16 nM. It also gave an IC50 (second compound 1 µM) of under 3.16 nM, an IC50 (second compound 3.16 µM) of under 3.16 nM and an IC50 (second compound 10 µM) of under 3.16 nM. For the same compound, the viability, T/C [1] was 99.6%, the viability, T/C [2] was 62.2% and the viability, T/C [3] was 36.4%. The viability, T/C [4] was 11.9%, the viability, T/C [5] was 3.81% and the viability, T/C [6] was 2.23%. It also gave a viability, T/C [7] of 72.3%, a viability, T/C [8] of 63.5% and a viability, T/C [9] of 31.1%. For the same compound, the viability, T/C [10] was 10.7%, the viability, T/C [11] was 3.24% and the viability, T/C [12] was 2.43%. For the same compound, the viability, T/C [13] was 8.06%, the viability, T/C [14] was 6.72% and the viability, T/C [15] was 3.02%. It also gave a viability, T/C [16] of 1.03%, a viability, T/C [17] of 0.35% and a viability, T/C [18] of 0.51%. It also gave a viability, T/C [19] of 0.24%, a viability, T/C [20] of 0.17% and a viability, T/C [21] of 0.09%. It also gave a viability, T/C [22] of 0.07%, a viability, T/C [23] of 0.05% and a viability, T/C [24] of 0.12%. The viability, T/C [25] was 0.37%, the viability, T/C [26] was 0.37% and the viability, T/C [27] was 0.6%. The viability, T/C [28] was 0.12%, the viability, T/C [29] was 0.13% and the viability, T/C [30] was 0.1%. For the same compound, the viability, T/C [31] was 0.23%, the viability, T/C [32] was 0.33% and the viability, T/C [33] was 0.19%. The viability, T/C [34] was 0.18%, the viability, T/C [35] was 0.32% and the viability, T/C [36] was 0.15%.
